Counter-ions that a name gives are not always drawn.

The test addresses T1, human TRPC6 (Homo sapiens, UniProt Q9Y210).
T1 construct: expressed in transfected cells
T1 sequence (Q9Y210 1-931): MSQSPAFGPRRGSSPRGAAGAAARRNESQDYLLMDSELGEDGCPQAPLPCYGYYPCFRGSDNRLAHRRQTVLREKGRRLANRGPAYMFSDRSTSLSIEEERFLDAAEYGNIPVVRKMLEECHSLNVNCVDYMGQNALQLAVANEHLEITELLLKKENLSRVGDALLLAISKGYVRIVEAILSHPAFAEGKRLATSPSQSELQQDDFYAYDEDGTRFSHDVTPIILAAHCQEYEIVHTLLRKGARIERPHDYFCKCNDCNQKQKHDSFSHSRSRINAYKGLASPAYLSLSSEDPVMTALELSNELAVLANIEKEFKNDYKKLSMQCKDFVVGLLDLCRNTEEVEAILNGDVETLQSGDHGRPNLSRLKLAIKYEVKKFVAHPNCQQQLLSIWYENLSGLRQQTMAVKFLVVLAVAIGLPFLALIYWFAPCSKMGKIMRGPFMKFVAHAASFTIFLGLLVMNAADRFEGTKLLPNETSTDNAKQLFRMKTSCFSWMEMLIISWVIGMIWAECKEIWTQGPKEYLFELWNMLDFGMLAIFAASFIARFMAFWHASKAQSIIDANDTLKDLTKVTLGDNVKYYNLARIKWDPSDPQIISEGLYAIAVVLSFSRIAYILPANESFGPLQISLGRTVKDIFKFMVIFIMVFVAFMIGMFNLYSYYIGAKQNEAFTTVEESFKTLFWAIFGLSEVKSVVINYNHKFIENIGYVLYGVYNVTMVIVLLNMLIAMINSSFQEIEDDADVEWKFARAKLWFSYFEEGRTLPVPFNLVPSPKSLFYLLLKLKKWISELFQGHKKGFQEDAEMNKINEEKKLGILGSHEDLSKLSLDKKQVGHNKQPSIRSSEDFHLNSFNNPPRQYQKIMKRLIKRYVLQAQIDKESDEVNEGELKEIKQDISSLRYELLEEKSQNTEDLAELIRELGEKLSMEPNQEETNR
As to the kind of experiment: TRPC6 calcium flux assay (FLIPR, OAG-stimulated calcium influx). Format: cell-based. The note with it: HEK293 cells stably transfected with human TRPC6, read-out: hTRPC6 Potency. The procedure, abridged: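 HEK293 cells stably expressing human TRPC6, loaded with calcium dye 90–120 min at RT, then given compound for 25 min before OAG (50 uM final, 0.5% DMSO) in HEPES buffer pH 7.2 with 2 mM CaCl2. Background-subtracted FLIPR peak over 180 s normalized to OAG vs buffer; IC50 from dose plot.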
Background: A change in cytosolic calcium serves as a functional read-out for many receptors and channels.
On to `C[C@H]1COCCN1C(=O)Cn1c(N2CC[C@@H](F)[C@H](N)C2)nc2ccc(F)cc21` [Example 678, 2-(2-((3R,4R)-3-amino-4-fluoropiperidin-1-yl)-6-fluoro-1H-benzo[d]imidazol-1-yl)-1-((S)-3-methylmorpholino)ethan-1-one], for which the IC50 was found to be 98.3 nM.

For the compound `Cn1ncc2cccc(Cn3c(N4CC[C@@H](F)[C@H](N)C4)nc4cc(F)c(F)cc43)c21` [Example 264, (3R,4R)-1-(5,6-difluoro-1-((1-methyl-1H-indazol-7-yl)methyl)-1H-benzimidazol-2-yl)-4-fluoro-3-piperidinamine], the IC50 came out at 217 nM.

For the compound `COc1cccc2c1nc(N1CC[C@@H](F)[C@H](N)C1)n2Cc1ccc(C#N)cn1` [Example 120, 6-((2-((3R,4R)-3-amino-4-fluoro-1-piperidinyl)-4-methoxy-1H-benzimidazol-1-yl)methyl)-3-pyridinecarbonitrile], the IC50 was 3.21 nM.

With `C[C@H](c1ccccc1Cl)n1c(N2CC[C@@H](F)[C@H](N)C2)nc2cc(F)c(F)cc21` [Example 324, (3R,4R)-1-(1-((1R)-1-(2-chlorophenyl)ethyl)-5,6-difluoro-1H-benzimidazol-2-yl)-4-fluoro-3-piperidinamine], the IC50 was above 3750 nM. With `CN(CC(F)(F)F)C(=O)Cn1c(N2CCC(F)(CN)C2)nc2cc(F)ccc21` (stereo not drawn) [Example 487, 2-(2-(3-(aminomethyl)-3-fluoropyrrolidin-1-yl)-5-fluoro-1H-benzo[d]imidazol-1-yl)-N-methyl-N-(2,2,2-trifluoroethyl)acetamide] the figure was above 3750 nM; with `N[C@@H]1CN(c2nc3cc(F)c(F)cc3n2Cc2ccc(F)cn2)CCC1(F)F` [Example 307, (R)-1-(5,6-difluoro-1-((5-fluoropyridin-2-yl)methyl)-1H-benzo[d]imidazol-2-yl)-4,4-difluoropiperidin-3-amine], 376 nM. Regarding `N#Cc1cnc(Cn2c(N3CC[C@@H](F)[C@H](N)C3)nc3cc(F)ccc32)nc1` [Example 443, 2-((2-((3R,4R)-3-amino-4-fluoropiperidin-1-yl)-5-fluoro-1H-benzo[d]imidazol-1-yl)methyl)pyrimidine-5-carbonitrile], the IC50 was 0.471 nM. In the case of `Cc1nnc(Cn2c(N3CC[C@@H](F)[C@H](N)C3)nc3cc(F)c(F)cc32)n1C` [Example 586, (3R,4R)-1-(1-((4,5-dimethyl-4H-1,2,4-triazol-3-yl)methyl)-5,6-difluoro-1H-benzo[d]imidazol-2-yl)-4-fluoropiperidin-3-amine] it was 747 nM; in that of `N#Cc1ccc(Cn2c(N3CC[C@H](O)[C@@H](N)C3)nc3ccccc32)nc1` [Example 96, 6-((2-((3S,4S)-3-amino-4-hydroxypiperidin-1-yl)-1H-benzo[d]imidazol-1-yl)methyl)nicotinonitrile], 134 nM; in that of `N[C@@H]1CN(c2nc3cc(F)c(F)cc3n2Cc2ccc(Cl)cc2Cl)CC[C@H]1F` [Example 341, (3R,4R)-1-(1-(2,4-dichlorobenzyl)-5,6-difluoro-1H-benzimidazol-2-yl)-4-fluoro-3-piperidinamine], 25.8 nM.

For the compound `N[C@@H]1CN(c2nc3cc(F)c(F)cc3n2CC(=O)N2CCCC(O)C2)CC[C@H]1F` (mixture of isomers) [Example 628, 2-(2-((3R,4R)-3-amino-4-fluoropiperidin-1-yl)-5,6-difluoro-1H-benzo[d]imidazol-1-yl)-1-(3-hydroxypiperidin-1-yl)ethanone], the IC50 was 132 nM.

Consider `N#Cc1ccc(Cn2c(N3CCC[C@@]4(CCN4)C3)nc3ccccc32)nc1` [Example 27, (R)-6-((2-(1,6-diazaspiro[3.5]nonan-6-yl)-1H-benzo[d]imidazol-1-yl)methyl)nicotinointrile], for which the IC50 was found to be 73.5 nM. With `CCN(C)C(=O)Cn1c(N2CC[C@@H](F)[C@H](N)C2)nc2cc(F)c(F)cc21` [Example 605, 2-(2-((3R,4R)-3-amino-4-fluoropiperidin-1-yl)-5,6-difluoro-1H-benzo[d]imidazol-1-yl)-N-ethyl-N-methylacetamide] the figure was 7.9 nM; with `N[C@@H]1CN(c2nc3cc(F)ccc3n2Cc2ncc(Cl)cn2)CC[C@H]1F` [Example 290, (3R,4R)-1-(1-((5-chloropyrimidin-2-yl)methyl)-5-fluoro-1H-benzo[d]imidazol-2-yl)-4-fluoropiperidin-3-amine], 1970 nM; with `N[C@@H]1CN(c2nc3ccccc3n2Cc2ncc(Cl)cn2)CC[C@H]1F` [Example 195, (3R,4R)-1-(1-((5-chloropyrimidin-2-yl)methyl)-1H-benzo[d]imidazol-2-yl)-4-fluoropiperidin-3-amine], 0.664 nM. In the case of `C[C@@H](c1ccc(Cl)cc1Cl)n1c(N2CC[C@@H](F)[C@H](N)C2)nc2cc(F)c(F)cc21` [Example 323, (3R,4R)-1-(1-((1S)-1-(2,4-dichlorophenyl)ethyl)-5,6-difluoro-1H-benzimidazol-2-yl)-4-fluoro-3-piperidinamine] it was above 3750 nM. Consider `N#Cc1ccc(Cn2c(N3CCC[C@H](N)C3)nc3ccccc32)c(F)c1` [Example 315, (S)-4-((2-(3-aminopiperidin-1-yl)-1H-benzo[d]imidazol-1-yl)methyl)-3-fluorobenzonitrile hydrochloride], for which the IC50 is above 50000 nM. In the case of `CN(C(=O)Cn1c(N2CC[C@@H](F)[C@H](N)C2)nc2cc(F)c(F)cc21)C1CCS(=O)(=O)C1` (mixture of isomers) [Example 525, 2-(2-((3R,4R)-3-amino-4-fluoropiperidin-1-yl)-5,6-difluoro-1H-benzo[d]imidazol-1-yl)-N-(1,1-dioxidotetrahydrothiophen-3-yl)-N-methylacetamide] it was 1780 nM. With `N#Cc1ccc(Cn2c(N3CC[C@H](O)[C@H](N)C3)nc3cc(F)ccc32)nc1` [Example 312, 6-((2-((3R,4S)-3-amino-4-hydroxypiperidin-1-yl)-5-fluoro-1H-benzo[d]imidazol-1-yl)methyl)nicotinonitrile], the IC50 came to 2860 nM.

For the compound `N[C@@H]1CN(c2nc3ccc(F)cc3n2CC(=O)NCCC(F)(F)F)CC[C@H]1F` [Example 673, 2-(2-((3R,4R)-3-amino-4-fluoropiperidin-1-yl)-6-fluoro-1H-benzo[d]imidazol-1-yl)-N-(3,3,3-trifluoropropyl)acetamide], the IC50 was above 3750 nM. With `N[C@@H]1CN(c2nc3cc(F)c(F)cc3n2Cc2cccc(Cl)c2)CC[C@H]1F` [Example 367, (3R,4R)-1-(1-(3-chlorobenzyl)-5,6-difluoro-1H-benzimidazol-2-yl)-4-fluoro-3-piperidinamine] the figure was 354 nM. In the case of `N[C@@H]1CN(c2nc3cc(F)c(F)cc3n2[C@@H]2CCN(C3CCOCC3)C2=O)CC[C@H]1F` [Example 550, (R)-3-(2-((3R,4R)-3-amino-4-fluoropiperidin-1-yl)-5,6-difluoro-1H-benzo[d]imidazol-1-yl)-1-(tetrahydro-2H-pyran-4-yl)pyrrolidin-2-one] it was above 3750 nM; in that of `N#Cc1ccc(Cn2c(N3CCC4CCN[C@H]4C3)nc3ccccc32)nc1` (stereo partly drawn) [Example 26, 6-((2-((3aS,7aR)-hexahydro-1H-pyrrolo[2,3-c]pyridin-6(2H)-yl)-1H-benzo[d]imidazol-1-yl)methyl)nicotinointrile], 161 nM. With `N#Cc1ccc(Cn2c(N3CC[C@H](F)[C@H](N)C3)nc3cc(F)c(F)cc32)nc1` [Example 83, 6-((2-((3R,4S)-3-amino-4-fluoropiperidin-1-yl)-5,6-difluoro-1H-benzo[d]imidazol-1-yl)methyl)nicotinonitrile hydrochloride] the figure was 0.906 nM. With `N#Cc1ccc(Cn2c(N3CC[C@@H](F)[C@H](N)C3)nc3c(C(F)(F)F)cccc32)nc1` [Example 90, 6-((2-((3R,4R)-3-amino-4-fluoropiperidin-1-yl)-4-(trifluoromethyl)-1H-benzo[d]imidazol-1-yl)methyl)nicotinonitrile], the IC50 was 68 nM. Regarding `COc1cnc(Cn2c(N3CC[C@@H](F)[C@H](N)C3)nc3cc(C#N)ccc32)nc1` [Example 241, 2-((3R,4R)-3-amino-4-fluoropiperidin-1-yl)-1-((5-methoxypyrimidin-2-yl)methyl)-1H-benzo[d]imidazole-5-carbonitrile hydrochloride], the IC50 was above 3750 nM. With `C[C@@H]1COCCN1C(=O)Cn1c(N2CC[C@@H](F)[C@H](N)C2)nc2ccc(F)cc21` [Example 681, 2-(2-((3R,4R)-3-amino-4-fluoropiperidin-1-yl)-6-fluoro-1H-benzo[d]imidazol-1-yl)-1-((R)-3-methylmorpholino)ethan-1-one] the figure was 168 nM.

(Values after patent publication US11332459B2 (TEIJIN PHARMA LIMITED, priority 2017, dated 2022).)
